# Test results as given in the Deep4Chem optical property database.
# Experiment: solvent given as SMILES
compound,measurement,setting,value
CCC1=C(C2=C(C3=C(CC)S(=O)(=O)c4ccccc43)C(F)(F)C(F)(F)C2(F)F)c2ccccc2S1(=O)=O,absorption maximum,in C1COCCO1,310 nm
Cn1c2ccccc2c(=O)c2ccccc21,absorption maximum,in CS(C)=O,403 nm
same,absorption maximum,in O,394 nm
c1cc2ccc1-c1ccc(cc1)-c1ccc([se]1)-c1ccc(cc1)-c1ccc(cc1)-c1ccc([se]1)-c1ccc(cc1)-c1ccc(cc1)-c1ccc([se]1)-c1ccc(cc1)-c1ccc(cc1)-c1ccc-2[se]1,absorption maximum,in C1CCOC1,370 nm
C/C=C/c1cccc(OC)c1,absorption maximum,in CCCCCC,293 nm
F[B-]1(F)OC(c2ccccc2)=Nc2sc(-c3ccccc3)n[n+]21,absorption maximum,in C1CCOC1,332 nm
same,absorption maximum,in CC#N,330 nm
same,absorption maximum,in CCO,328 nm
same,absorption maximum,in CCOC(C)=O,331 nm
same,absorption maximum,in Cc1ccccc1,337 nm
same,absorption maximum,in ClC(Cl)Cl,335 nm
same,absorption maximum,in ClCCl,333 nm
c1ccc(-c2nc(-c3ccccc3)nc(-c3ccc(N4c5ccccc5C5(c6ccccc64)c4ccccc4C4(c6ccccc6Sc6ccccc64)c4ccccc45)cc3)n2)cc1,absorption maximum,in Cc1ccccc1,394.63 nm
O=c1c2cc(F)c(O)cc2oc2cc(O)c(F)cc12,absorption maximum,in CCO,369 nm
O=C1/C(=C\c2ccc3oc4ccccc4c3c2)S(=O)(=O)c2ccccc21,absorption maximum,in C1CCOC1,368 nm
same,absorption maximum,in C1COCCO1,369 nm
same,absorption maximum,in CC#N,365 nm
same,absorption maximum,in CC(C)=O,365 nm
same,absorption maximum,in CCOC(C)=O,366 nm
same,absorption maximum,in CN(C)C=O,367 nm
same,absorption maximum,in CO,367 nm
same,absorption maximum,in CS(C)=O,369 nm
same,absorption maximum,in Cc1ccccc1,373 nm
same,absorption maximum,in ClC(Cl)Cl,378 nm
same,absorption maximum,in ClCCl,372 nm
c1ccc2c(c1)CCc1ccccc1N2c1c2ccccc2cc2ccccc12,absorption maximum,in Cc1ccccc1,426 nm
CCCCCCN1C(=O)c2cccc3c(-c4ccc(-c5cc(-c6ccc(C)cc6)n(-c6ccccc6)n5)s4)ccc(c23)C1=O,absorption maximum,in ClCCl,402 nm
CCn1c(-c2ccc(OC)cc2)c(-c2ccc3ccccc3c2)c(-c2ccc3ccccc3c2)c1-c1ccc(OC)cc1,absorption maximum,in CCOC(C)=O,259 nm
Cc1cc(C)c2cc3cc(C)ncc3cc2c1,absorption maximum,in CCO,386.1 nm
COC(=O)/C=C/c1sc(-c2ccc(N(C)C)s2)c(-c2ccsc2)c1N,absorption maximum,in CC#N,472 nm
CN(C)c1ccc(C#Cc2nc(-c3ccccc3)nc3ccccc23)cc1,absorption maximum,in ClCCl,414 nm
COc1ccc(C2=CC(c3ccccc3)=C(c3ccccc3)C2)c2ccccc12,absorption maximum,in ClCCl,354 nm
O=c1oc2ccc(Cl)cc2cc1-c1cc2cc(Cl)ccc2o1,absorption maximum,in CC#N,369 nm
same,absorption maximum,in CCOC(C)=O,370 nm
same,absorption maximum,in CS(C)=O,373 nm
same,absorption maximum,in Cc1ccccc1,375 nm
same,absorption maximum,in O,327 nm
CC(C)c1cc(C(C)C)c(B2c3cc(-n4c5ccccc5c5ccccc54)ccc3N(c3ccccc3)c3ccc(-n4c5ccccc5c5ccccc54)cc32)c(C(C)C)c1,absorption maximum,in C1CCCCC1,400 nm
Cc1nc2cc(/C=C/c3ccc(N(C)C)cc3)ccc2nc1-c1ccccc1,absorption maximum,in C1COCCO1,415 nm
same,absorption maximum,in CC#N,407 nm
same,absorption maximum,in ClCCl,407 nm
N#Cc1cccc2[nH]ccc12,absorption maximum,in C1COCCO1,304.29 nm
same,absorption maximum,in CC#N,302.81 nm
same,absorption maximum,in O,305 nm
CCCCCCC(CCCCCC)N1C(=O)c2cccc3c(-c4ccc(OC)cc4)ccc(c23)C1=O,absorption maximum,in CCCCCC,354.2 nm
same,absorption maximum,in CCCCCCCCCCCCCC,356.4 nm
same,absorption maximum,in CCCCCCCCCCCO,365.6 nm
same,absorption maximum,in CCCCO,366.2 nm
same,absorption maximum,in CN(C)C=O,368 nm
same,absorption maximum,in Cc1ccccc1,364.2 nm
same,absorption maximum,in ClC(Cl)Cl,364.8 nm
CN(C)c1ccc(C#Cc2ccc3c(N(C)C)cc(-c4ccccc4)cc3c2)cc1,absorption maximum,in CC#N,342.13 nm
same,absorption maximum,in CCO,335.73 nm
same,absorption maximum,in ClCCl,341 nm
CCOC(=O)/N=c1/oc2cc(N(CC)CC)ccc2cc1C#N,absorption maximum,in ClCCl,440 nm
N#Cc1c(N2CCCCC2)cc(-c2ccc(-c3ccccc3)s2)c2c1CCc1ccccc1-2,absorption maximum,in C1CCOC1,345 nm
CCCCCCCCCCCCN1C(=O)c2c(c3ccc4cc(-c5ccccc5)c(OC)cc4c3c3c2ccc2cc(-c4ccccc4)c(OC)cc23)C1=O,absorption maximum,in ClCCl,432 nm
CCCCCCc1ccc2c(/C=N/c3cc(/N=C/c4c(O)ccc5cc(CCCCCC)ccc45)cc(/N=C/c4c(O)ccc5cc(CCCCCC)ccc45)c3)c(O)ccc2c1,absorption maximum,in C1CCOC1,477 nm
same,absorption maximum,in CC#N,474 nm
same,absorption maximum,in Cc1ccccc1,480 nm
same,absorption maximum,in ClCCl,479 nm
COC(=O)c1cc(=O)n(C)c2cc(-c3ccc(Oc4ccccc4)cc3)sc12,absorption maximum,in CC#N,396 nm
same,absorption maximum,in ClCCl,398 nm
c1ccc(N(c2ccccc2)c2ccc(-c3cnc(-c4ccc(N(c5ccccc5)c5ccccc5)cc4)s3)cc2)cc1,absorption maximum,in CO,398 nm
CO[B-]1(OC)n2c(C)cc(C)c2C(c2ccc(I)cc2)=C2C(C)=CC(C)=[N+]21,absorption maximum,in ClC(Cl)Cl,505 nm
CC1=C(Cl)C(/C=C/c2ccc3c(c2)c2ccccc2n3Cc2cn(CCC[P+](c3ccccc3)(c3ccccc3)c3ccccc3)nn2)=[N+]2C1=C(c1ccc(I)cc1)c1c(C)c(Cl)c(C)n1[B-]2(F)F,absorption maximum,in CCO,612 nm
c1ccc2c(c1)c1ccccc1n2-c1cc(-c2nc3ccccn3n2)cc(-n2c3ccccc3c3ccccc32)c1,absorption maximum,in Cc1ccccc1,338 nm
O=C1c2ccccc2-c2ccc(N3CCN(c4ccccc4)CC3)c3cccc1c23,absorption maximum,in C1CCCCC1,423 nm
same,absorption maximum,in C1CCOC1,438 nm
same,absorption maximum,in C1COCCO1,436.2 nm
same,absorption maximum,in CC1COC(=O)O1,445.6 nm
same,absorption maximum,in CC#N,444 nm
same,absorption maximum,in CC(C)=O,441.2 nm
same,absorption maximum,in CCCCCCCCO,445 nm
same,absorption maximum,in CCCCCO,446 nm
same,absorption maximum,in CCCCO,444 nm
same,absorption maximum,in CCCO,445 nm
same,absorption maximum,in CCO,446.8 nm
same,absorption maximum,in CCOC(C)=O,436 nm
same,absorption maximum,in CN(C)C=O,447.2 nm
same,absorption maximum,in CO,445 nm
same,absorption maximum,in CS(C)=O,452 nm
same,absorption maximum,in Cc1ccccc1,435.8 nm
same,absorption maximum,in ClC(Cl)Cl,443 nm
Cc1ccc(-c2cccc3ncc(-c4ccccc4)n23)cc1,absorption maximum,in ClCCl,341 nm
FC(F)(F)C(F)(F)C(F)(F)C(F)(F)C(F)(F)C(F)(F)CCOc1nnc(Cl)nn1,absorption maximum,in ClCCl,519 nm
same,absorption maximum,in OCC(F)(F)F,519 nm
CCCCN1C(=O)C2=C(c3ccc(-c4ccccc4)cc3)[N-]C(=O)C2=C1c1ccc(-c2ccccc2)cc1,absorption maximum,in ClCCl,585 nm
N#Cc1cc(/C=C/c2ccc(N(c3ccccc3)c3ccccc3)cc2)ccc1/C=C/c1ccc(/C=C/c2ccc(N(c3ccccc3)c3ccccc3)cc2)cc1,absorption maximum,in ClCCl,433 nm
CCCCCCCCCCCCC1(CCCCCCCCCCCC)c2cc(-c3ccc(C=C4C(=O)c5ccccc5C4=O)cc3)ccc2-c2ccc(-c3ccc(C=C4C(=O)c5ccccc5C4=O)cc3)cc21,absorption maximum,in C1CCOC1,433 nm
same,absorption maximum,in CC(C)=O,429 nm
same,absorption maximum,in CCCCCC,419 nm
same,absorption maximum,in CS(C)=O,437 nm
same,absorption maximum,in Cc1ccccc1,429 nm
same,absorption maximum,in ClC(Cl)Cl,438 nm
COc1ccc(-c2c3nc(cc4ccc([nH]4)c(-c4ccc(OC)c(OCCCC(=O)O)c4)c4nc(cc5ccc2[nH]5)CC4)CC3)cc1OCCCC(=O)O,absorption maximum,in CS(C)=O,736 nm
CCCCCCOc1cc(N(CC)CC)ccc1/C=C(\C#N)c1ccc(/C=C/C(=C(C#N)C#N)c2ccc(N(c3ccccc3)c3ccccc3)cc2)s1,absorption maximum,in ClCCl,557 nm
COc1cccc(C2=C3C=C(/C=C/C(=O)OC(C)(C)C)C=[N+]3[B-](F)(F)n3cccc32)c1,absorption maximum,in ClCCl,539 nm
C[Si](C)(C)c1sc([Si](C)(C)C)c2c1sc1ccsc12,absorption maximum,in ClC(Cl)Cl,310 nm
Cc1cc(=O)oc2cc3c(cc12)c1c2ccccc2c2ccccc2c1c1c2ccccc2c2ccccc2c31,absorption maximum,in ClC(Cl)Cl,386 nm
CCCCCCCN1C(=CC2=C([O-])C(=CC3=[N+](CCCCCCC)c4ccccc4C3(C)C)C2=C(C#N)C#N)Sc2ccccc21,absorption maximum,in C1COCCO1,694 nm
same,absorption maximum,in CCO,681 nm
same,absorption maximum,in CN(C)C=O,681 nm
same,absorption maximum,in ClC(Cl)Cl,690 nm
CC(C)(C)OC(=O)COc1ccc2c(c1)oc(=O)c1c(=O)oc3ccccc3c12,absorption maximum,in CS(C)=O,366 nm
same,absorption maximum,in ClCCl,365 nm
Oc1ccc(-c2cccs2)cc1-c1nc2ccccc2s1,absorption maximum,in CCO,360 nm
same,absorption maximum,in O,361 nm
CCCC1=Cc2nc1ccc1[nH]c(cc1CCC)c1nc(c(N)cc3[nH]c2cc3CCC)C(CCC)=C1,absorption maximum,in Cc1ccccc1,710 nm
CNc1cc2nc3cc(Br)c(Br)cc3nc2cc1NC,absorption maximum,in CCO,443 nm
CCN(CC)c1ccc(-c2nc3c(nc2-c2ccc([B-](F)(c4c(C)cc(C)cc4C)c4c(C)cc(C)cc4C)cc2)c2ccccc2n3C)cc1,absorption maximum,in C1CCOC1,414.75 nm
O=[N+]([O-])c1ccc(S(=O)(=O)Nc2ccc(C#Cc3ccc4ccc5ccc(C#Cc6ccc(NS(=O)(=O)c7ccc([N+](=O)[O-])cc7[N+](=O)[O-])cc6)c6ccc3c4c56)cc2)c([N+](=O)[O-])c1,absorption maximum,in CO,402 nm
CC1(C)c2ccccc2N(c2ccc(-c3ccc4c(c3)c3cc(-c5ccc(N6c7ccccc7C(C)(C)c7ccccc76)cc5)ccc3c3nc(C#N)c(C#N)nc43)cc2)c2ccccc21,absorption maximum,in Cc1ccccc1,405 nm
CCCN1c2ccccc2Sc2cc(/C=C\c3cc(=O)oc4cc(C)c(Cl)cc34)ccc21,absorption maximum,in ClC(Cl)Cl,432 nm
CCC12C(=C3C(=C4c5ccc(-c6ccccc6)cc5S(=O)(=O)C41CC)C(F)(F)C(F)(F)C3(F)F)c1ccc(-c3ccccc3)cc1S2(=O)=O (stereo not drawn),absorption maximum,in C1COCCO1,456 nm
COc1cc2cc(-c3ccc(C(=O)OCOC(C)=O)cc3C(=O)OCOC(C)=O)oc2cc1N1CCOCCOCCN(c2cc3oc(-c4ccc(C(=O)OCOC(C)=O)cc4C(=O)OCOC(C)=O)cc3cc2OC)CCOCCOCC1,absorption maximum,in O,350 nm
c1ccc(-n2c3ccccc3c3cc(-c4cccc(-n5c6cccnc6c6c7sc8ccccc8c7ccc65)c4)ccc32)cc1,absorption maximum,in ClCCl,365 nm
c1ccc(-c2nc3cc4c(cc3n2-c2ccccc2)nc(-c2ccccc2)n4-c2ccccc2)cc1,absorption maximum,in CC#N,330 nm
CN(C)c1ccc(C#Cc2ccc(-c3nc(C#N)c(C#N)n3C)cc2)cc1,absorption maximum,in C1CCCCC1,372 nm
same,absorption maximum,in CC#N,357 nm
same,absorption maximum,in CO,356 nm
same,absorption maximum,in ClC(Cl)Cl,369 nm
CN(/N=C1\N=C(N)C2(CCCC2)c2ccccc21)c1ccccc1,absorption maximum,in ClCCl,378 nm
